Experimental data published in US20170112787A1, “METHODS OF TREATMENT OF INFLAMMATION OF THE GUT” (THE UNIVERSITY OF CONNECTICUT, priority 2015, published 2017).

Assays:
[1] = system: CX3CR1+ Mφ in PLN and MLN; test: Oral gavage; frequency of CX3CR1+ Mφ in PLN and MLN by flow cytometry; type: in vivo, mouse
Procedure: (§1) Cell isolation: The siLP cells were isolated as per protocols known in the art. In brief, small intestines were removed from the mice, luminal contents were flushed with cold HBSS (Invitrogen, Carlsbad, Calif., USA) with 5% FBS, opened longitudinally after removing Peyer's patches and cut in to small pieces. The epithelial cells were removed by incubation with HBSS containing 1.3 mM EDTA (Invitrogen, Carlsbad, Calif., USA), 1mM HEPES (Invitrogen, Carlsbad, Calif., USA) and 0.77 mM DTT (Sigma, St. Louis, Mo., USA) at 37° C. shaking at 350 rpm. The intestinal pieces were then washed with PBS (Invitrogen, Carlsbad, Calif., USA) and digested in 100 units/ml collagenase IV (Sigma, St. Louis, Mo., USA) at 37° C. shaking at 550 rpm. Leukocytes were enriched using percoll (GE Healthcare, Piscataway, N.J., USA) gradient. The PLN, MLN and splenic cells were isolated by gently crushing the organs through 70 μm cell strainer (BD Falcon, Franklin, N.J., USA). Splenocytes were incubated with ACK lysing buffer (Invitrogen, N.Y., USA) to eliminate red blood cells for 3 mins at 37° C. and washed twice with PBS.
Flow cytometry: Fluorescently labeled antibodies used for surface staining included: CD11b (M1/70), CD11 c (N418), CX3CR1 (polyclonal), CD103 (2E7), CD64 (X54-5/7.1), MHCII (M5/114.15.2), B220 (RA3-6B2), CD3 (145-2C11), CD4 (RM4-5), CD25 (PC61) and CD62L (ME2-14) and those used for intracellular staining include: VR1 (polyclonal) IL10 (JESS-16E3), TNFα (MP6-XT22), IFNγ (XMG1.2), and IL17A (TC11-18H10.1). For detection of CB2, primary antibody against CB2 (polyclonal) was used followed by fluorescently labeled secondary antibody. All were purchased from Biolegend San Diego, Calif., USA except for TNFα (Becton Dickinson, San Jose, Calif., USA), CX3CR1 (R&D Minneapolis, Minn., USA), VR1 (Thermo Scientific, Rockford, Ill. USA), IL10 (eBioscience, San Diego Calif., USA) and CB2 (Thermo Scientific, Rockford, Ill. USA). Cells were acquired with a LSRII flow cytometer (Becton Dickinson, San Jose, Calif., USA) or sorted with a FACSAria™ machine (Becton Dickinson, San Jose, Calif., USA). […]

IL27-p28 = test: qPCR of IL27-p28 in sorted siLP MNPs after oral gavage; type: in vivo, mouse; settings: two days after treatment, with respect to vehicle
Procedure: (§2) Oral administration of CP, AEA and PF3845: Mice were anesthetized with intraperitoneal injection of ketamine (2 mg/kg) and xylazine (0.1 mg/kg). Vehicle control (tween 80 (5%), […] in PBS) or CP (10 μg) (ENZO Life Sciences, Farmingdale, N.Y., USA) or AEA (250 μg, 400 μg or 500 μg) (Cayman Chemical Co., Ann Arbor, Mich., USA) or PF3845 (5 mg/kg) (Cayman Chemical Co., Ann Arbor, Mich., USA) were gavaged in 100 μl volume using an 18-gauge feeding needle (Popper & Sons, New Hyde Park, N.Y., USA).
qPCR: Total RNA was isolated from sorted siLP MNP using the RNeasy® Micro kit Oaten, Chatsworth, Calif., USA). cDNA was made from total RNA using iSCRIPT™ cDNA synthesis kit (Bio-Rad Laboratories, Hercules, Calif.). IL-27 gene expression was measured using IL-27 TactMan® Gene Expression Assay (Life technologies, Grand Island, N.Y., USA) and CFX96™ Real-Time PCR detection system (Bio-Rad Laboratories, Hercules, Calif., USA). Gene expression was normalized to GAPDH.

[2] = system: Type 1 Diabetes in NOD mice; test: Adoptive transfer of CD4+ T cells from treated NOD donors; diabetes development by urine glucose; type: in vivo, mouse; settings: CD4+ T cells from PLN and spleen of treated female NOD donors, vs vehicle elicited cells
Procedure: Adoptive transfer: Female NOD mice were orally gavaged with CP 10 μg or vehicle at 9 and 10 weeks of age as described earlier. 2 weeks later CD4^+ T cells were sorted from the PLN and spleen of the treated mice. All recipient female NOD mice were sub-lethally irradiated. Four hours after irradiation the recipient mice received […] diabetogenic splenocytes. 7×10^6 sorted CD4^+ T cells were then transferred to naïve NOD female mice by retro-orbital injection at 11 weeks of age. Development of diabetes was monitored by measuring urine glucose using Diastix® reagent strips (Bayer, Elkhart, Ind., USA). Mice were considered diabetic after two consecutive readings of >1000 mg/dl of urine glucose.

siLP CX3CR1hi Mφ = test: Oral gavage; frequency of siLP CX3CR1hi Mφ and CX3CR1lo cells by flow cytometry; type: in vivo, mouse
From the text: Mice: C57BL/6, NOD/Lt, VR1^−/− (also known as TRPV1^−/−), IL27RA^−/− (also known as WSX-1^−/−) and CX3CR1^gfp/gfp, were obtained from the Jackson Laboratory (Bar Harbor, Me.). IL10-GFP reporter (Vert-X) mice were a kind gift from Dr. Roger S Thrall. All animals except NOD/Lt were on a C57BL/6 background. CX3CR1^gfp/gfp were crossed with C57BL/6 mice to obtain CX3CR1^gfp/+ mice. CX3CR1^gfp/gfp mice were backcrossed with VR1^−/− to obtain CX3CR1^gfp/+ VR1^−/− mice. IL27RA^−/− mice were backcrossed with C57BL/6 mice to obtain IL27RA^+/− mice. All animals were housed in the Center for Comparative Medicine at UConn Health. All experiments were conducted under the guidelines approved by the UConn Health Animal Care Committee.
as §1
(§3) Flow cytometry: Fluorescently labeled antibodies used for surface staining included: CD11b (M1/70), CD11 c (N418), CX3CR1 (polyclonal), CD103 (2E7), CD64 (X54-5/7.1), MHCII (M5/114.15.2), B220 (RA3-6B2), CD3 (145-2C11), CD4 (RM4-5), CD25 (PC61) and CD62L (ME2-14) and those used for intracellular staining include: VR1 (polyclonal) IL10 (JESS-16E3), TNFα (MP6-XT22), IFNγ (XMG1.2), and IL17A (TC11-18H10.1). For detection of CB2, primary antibody against CB2 (polyclonal) was used followed by fluorescently labeled secondary antibody. All were purchased from Biolegend San Diego, Calif., USA except for TNFα (Becton Dickinson, San Jose, Calif., USA), CX3CR1 (R&D Minneapolis, Minn., USA), VR1 (Thermo Scientific, Rockford, Ill. USA), IL10 (eBioscience, San Diego Calif., USA) and CB2 (Thermo Scientific, Rockford, Ill. USA). Cells were acquired with a LSRII flow cytometer (Becton Dickinson, San Jose, Calif., USA) or sorted with a FACSAria™ machine (Becton Dickinson, San Jose, Calif., USA). Flow cytometry analysis was done with the FlowJo Version 9.7.6 (Tree Star, Ashland, Oreg,).
as §2

[3] = system: CD4+IL10+IFN-γ+ Tr1 cells; test: Oral gavage; frequency of CD4+IL10+IFN-γ+ Tr1 cells and IL17A+ CD4+ T cells in siLP and PLN; type: in vivo, mouse
Procedure: as §1, §3
(§4) Intracellular cytokine staining: Cells were incubated with PMA (50 ng/ml) (Sigma Co., St. Luis, Mo., USA) plus ionomycin (1 μg/ml) (Sigma Co., St. Luis, Mo., USA) in the presence of golgi plug (BD Biosciences, San Jose, USA) for 5 hours at 37° C. followed by surface staining with fluorochrome conjugated antibodies and then intracellular staining of IL10, TNFα, IFNγ, and IL17A was performed by fixation and permeabilization according to manufacturer's protocol BD Cytofix/Cytoperm™ kit.
as §2
We now tested if CP can elicit such regulatory T cells in vivo. NOD mice were orally gavaged twice at 9th and 10th week of age with 10 μg CP or vehicle as a control; two weeks post CP treatment, siLP and the PLN were harvested and the frequency of CD4+IL10+IFN-γ+ Tr1 cells was measured.

[4] = system: siLP CX3CR1hi Mφ and CD103+ DCs; test: Oral gavage; IL10, TNF-α and CX3CR1 expression in siLP CX3CR1hi Mφ and CD103+ DCs by flow cytometry; type: in vivo, mouse
Procedure: as §1, §3
as §4, with “kit. […]” for “kit.”

[5] = system: naïve splenic CD4+ T cells; test: In vitro co-culture of siLP MNPs sorted from treated mice with naïve splenic CD4+ T cells; type: cell-based, mouse
Procedure: as §4
In vitro co-culture assays: For in vitro co-culture assays, siLP MNPs were sorted as described previously from C57BL/6 or CX3CR1^gfp/+ mice. MNPs (10×10^4) were cocultured for 4 days with splenic naïve CD25^− CD62L^hi CD4^±T cells sorted from untreated C57BL/6 or IL27Ra^−/− mice at 1:1 ratios in the presence of soluble αCD3 mAb (145-2C11) (0.5 μg/ml) in U-bottomed 96 well plates. The cultured cells were maintained in RPMI 1640 medium supplemented with 5% fetal bovine serum, 1 mM sodium pyruvate, 1 mM non-essential amino acids, 2 mM L-gluatamine, 50 units/ml streptomycin, and 50 μM Beta-mercaptoethanol, all purchased from Gibco/Invitrogen (Carlsbad, Calif., USA). After 4 days, the cultured cells were washed with PBS and surface stained with CD4 and intracellular staining was performed for IL10 and IFN-γ.
as §2

[6] = CX3CR1gfp/+ mice, oral gavage, 24 hours after feeding, vs vehicle
[7] = NOD mice, 10 μg at 9th and 10th week, two weeks post treatment

COc1cc(CNC(=O)CCCC/C=C/C(C)C)ccc1O [CP, Capsaicin]
frequency of CX3CR1+ Mφ in the MLN ([1]; 3 days after feeding 10 μg): but not in MLN | frequency of CX3CR1+ Mφ in the PLN ([1]; 3 days after feeding 10 μg): significant VR1-dependent increase in the frequency | frequency of CX3CR1+ Mφ in the PLN ([1]; NOD mice, 3 days post oral gavage 10 μg): significant increase in the frequency | level of IL27-p28 in the MNPs (IL27-p28): five fold increase | protection from T1D by transferred CD4+ T cells [2]: significantly higher protection from T1D | frequency and number of CX3CR1lo cells in siLP (siLP CX3CR1hi Mφ; CX3CR1gfp/+ mice, oral gavage 10 μg, 24 hours, vs vehicle): did not affect the frequency and number | frequency of CX3CR1hi Mφ in siLP (siLP CX3CR1hi Mφ; [6]): significantly increased the frequency | frequency of CX3CR1hi Mφ in siLP (siLP CX3CR1hi Mφ; CX3CR1gfp/gfp mice (lack functional CX3CR1), oral gavage 10 μg, 24 h): no changes in the frequency | frequency of CX3CR1hi Mφ in siLP (siLP CX3CR1hi Mφ; NOD mice, oral administration): increases the frequency | elicitation of Tr1 cells in PLN ([3]; CX3CR1gfp/gfp mice (no functional CX3CR1)): does not elicit Tr1 cells | Tr1 cell elicitation by IL27RA genotype ([3]; IL27RA −/−, +/− and +/+ mice): gene dose-dependence of Tr1 cell elicitation | dependence of elicited Tr1 cells on IL27 signaling ([3]; IL27RA+/+ vs IL27RA−/− mice, PLN): require the presence of functional IL27-IL27R signaling | frequency of Tr1 cells in PLN [3, 7]: expansion of Tr1 cells | frequency of Tr1 cells in siLP [3, 7]: expansion of Tr1 cells | frequency of IL17A+ CD4+ T cells in the PLN ([3]; NOD mice, oral administration): significant decrease in the frequency | production of TNF-α in CX3CR1hi Mφ ([4]; 24 hours after treatment, vs controls): decreased | expression of CX3CR1 on CX3CR1hi Mφ ([4]; CX3CR1gfp/+ mice, vs vehicle): significantly increased expression of CX3CR1 | IL10 production in CD103+ DCs ([4]; IL10-GFP reporter mice, oral gavage 10 μg, 24 hrs): modest but statistically significant increase in IL10 production | production of IL10 in CX3CR1hi Mφ ([4]; IL10 GFP-reporter mice, 24 hours after treatment, vs controls): significant increase in the production of IL10 | expression of IL10 in CD4+ T cells ([5]; MNPs sorted 24 hours after treatment, co-culture 1:1, four days): significant increase in the expression of IL10 | induction of CD4+ T cells expressing both IL10 and IFN-γ (Tr1) ([5]; MNPs sorted 24 hours after treatment, co-culture 1:1, four days, IL27RA+/+ T cells): significant increase in the induction | increase in frequency of CD4+ IL10+ IFN-γ+ T cells ([5]; T cells derived from IL27RA−/− mice): completely abrogated

O=C(Nc1cccnc1)N1CCC(Cc2cccc(Oc3ccc(C(F)(F)F)cn3)c2)CC1 [PF3845]
frequency of CX3CR1hi Mφ in siLP (siLP CX3CR1hi Mφ; [6]): increase in the frequency
